The target in one experiment is T1, aurora-2 kinase (Homo sapiens, UniProt O14965).
T1 construct: purchased Upstate, Lake Placid, N.Y; host or cells: sf9 cells
T1 sequence (O14965 1-403): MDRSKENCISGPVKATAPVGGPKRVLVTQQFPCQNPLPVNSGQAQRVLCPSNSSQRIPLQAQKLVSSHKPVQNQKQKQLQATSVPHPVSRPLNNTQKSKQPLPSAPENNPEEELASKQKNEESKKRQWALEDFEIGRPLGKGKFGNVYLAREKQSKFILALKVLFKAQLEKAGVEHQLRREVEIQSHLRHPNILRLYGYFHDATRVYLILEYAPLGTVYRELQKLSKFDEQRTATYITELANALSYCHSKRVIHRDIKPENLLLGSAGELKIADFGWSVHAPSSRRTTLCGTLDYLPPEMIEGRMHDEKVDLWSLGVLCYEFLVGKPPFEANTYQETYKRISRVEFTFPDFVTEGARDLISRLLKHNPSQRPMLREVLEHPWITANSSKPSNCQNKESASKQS
The experiment can be described thus: aurora-2 kinase inhibition assay (Kinase-Glo, ATP remaining). The format is biochemical. The conditions noted are these: Example 54, Table 8; 3 μM ATP; read-out: Aurora-2 Inhibition, IC50. The protocol: In this assay kinase activity was determined by quantifying the amount of ATP remaining in solution following a kinase reaction by measuring the light units (LU) produced by luciferase using a luminometer. Percent inhibition was determined for individual compounds by comparing luminometer readings of drug-treated reactions to controls containing no drug (DMSO control) and no Aurora-2 enzyme (ATP control) in the following equation: […]
(§1) In a 50 μl reaction, recombinant aurora-2 kinase produced in sf9 cells (Upstate, Lake Placid, N.Y.) was incubated at 30° C. for two hours with 62.5 μM Kemptide (Calbiochem, San Diego, Calif.), 3 μM ATP (Invitrogen, Carlsbad, Calif.) and kinase reaction buffer (40 mM Tris-HCl, 10 mM MgCl2 and 0.1 μg/μl bovine serum albumin (BSA)). This reaction was carried out in the presence of drug substances, which had been previously diluted to desired concentrations in DMSO. After incubation, 50 μl of Kinase-Glo® (Promega, Inc., Madison, Wis.) solution was added to each reaction mixture and allowed to equilibrate for 10 minutes at room temperature. Kinase-Glo solution contains luciferase enzyme and luciferin, which react with ATP to produce light. Kinase activity is determined by quantifying the amount of ATP remaining in solution following the kinase reaction by measuring the light units (LU) produced by luciferase using a luminometer (Thermo-Electron, Vantaa, Finland).
Briefly, kinase activity was determined by quantifying the amount of ATP remaining in solution following a kinase reaction by measuring the light units (LU) produced by luciferase using a luminometer. Percent inhibition was determined for individual compounds by comparing luminometer readings of drug-treated reactions to controls containing no drug (DMSO control) and no Aurora-2 enzyme (ATP control) in the following equation: […]
as §1, with “μg/Il” for “μg/μl”
Illustrative compounds 2-3, 2-5, 2-7, 2-4 and 2-9 were evaluated in an aurora-2 kinase inhibition assay. In this assay kinase activity was determined by quantifying the amount of ATP remaining in solution following a kinase reaction by measuring the light units (LU) produced by luciferase using a luminometer. Percent inhibition was determined for individual compounds by comparing luminometer readings of drug-treated reactions to controls containing no drug (DMSO control) and no Aurora-2 enzyme (ATP control) in the following equation: […]
In general terms: Kinase-Glo reads ATP consumption through a luciferase reaction.

Experiment [1] has as its system MDA-MB-231 breast carcinoma cells. The experiment in a line: cell proliferation assay (Cell-Titer-Glo), MDA-MB-231. The format is cell-based. The conditions noted are these: Homo sapiens, Example 65, 96 hours, read-out: IC50 (reduce cell number to 50% of untreated controls). The protocol: Cell culture-based assays can be used to evaluate the ability of compounds of the invention to inhibit one or more cellular activities, such as cancer cell growth and/or survival. Numerous cancer cell lines can be obtained from the American Type Culture Collection (ATCC) and other sources. Briefly, cells are seeded into 96-well, tissue-culture treated, opaque white plates (Thermo Electron, Vantaa, Finland), at between 5000 and 10000 cells per well, depending on the speed of cell proliferation, in 100 μl of appropriate growth medium (determined by the ATCC). Cells are then exposed to the appropriate concentration of drug or an equal amount of DMSO (drug diluent) and allowed to grow in its presence for 96 hours. Following this, 100 μl of Cell-Titer-Glo reagent (Promega, Inc., Madison, Wis.) is added to each well. Plates are then shaken for 2 minutes at room temperature to allow for cell lysis and incubated for 10 minutes to stabilize the luminescent signal. Similar to the Kinase-Glo assay reagent from Promega, this reagent contains both luciferase enzyme and its substrate luciferin. Luciferase, activated by ATP in the cell lysate, catalyzes the conversion of luciferin to oxyluciferin, a reaction which produces light. The amount of light produced is proportionate to the amount of ATP in the cell lysate, which is itself proportional to cell number and gives an index of cellular proliferation.
Compound 1-1 and Compound 2-11 were tested in a cell proliferation assay to determine potency in a cell-based assay format. Briefly, MDA-MB-231 breast carcinoma cells were inoculated onto 96-well plates and incubated in the presence of compounds for 96 hours. Following incubation, cells were lysed and ATP content used as a surrogate for cell number, using the Cell-Titer-Glo Luminescent Cell Viability Assay Kit (Promega Corp.). IC50 values, representing the concentration required to reduce cell number to 50% of untreated controls, were determined to be 20 uM for Compound 1-1 and 10 uM for Compound 2-11.

Experiment [2] has as its target T2, phosphorylated Axl in MDA-MB-231 breast carcinoma cells (Homo sapiens, UniProt P30530).
T2 construct: endogenous in cells; host or cells: MDA-MB-231 breast carcinoma cells
The experiment can be described thus: Axl autophosphorylation sandwich ELISA in cells. To be noted: 10 uM, 48 hours. The format is cell-based. The method, then:
Compound 2-11 was examined in a cell-based assay to determine its ability to reduce the activity of the Axl kinase enzyme in cell culture. Axl, like many receptor tyrosine kinases, autophosphorylates in response to growth factor stimulation. Briefly, MDA-MB-231 breast carcinoma cells were plated in 25 cm^2 tissue culture flasks and incubated in the presence of varying concentrations of Compound 2-11 for 48 hours. Following incubation, cells were lysed and the presence of phosphorylated Axl was detected using a commercially available sandwich ELISA assay kit (R&D Systems Inc.). […] For example, at concentrations as low as 10 uM, levels of phosphorylated Axl were reduced to less than 50% of those observed for untreated control samples.
Background: In an ELISA, binding on a coated surface is turned into a signal by an enzyme label.

Experiment [3] has as its system Granta-4 lymphoma cell line. The experiment can be described thus: lymphoma cell number reduction, Granta-4. The experiment is classed as cell-based. The conditions noted are these: 48 hours; read-out: IC50 Values Granta-4, single agent. The protocol:
(§2) New IC50 values were calculated for the second agent in an effort to determine whether or not pretreatment with one compound would increase sensitivity to the other. As set forth in the table below, compound 2-3 pretreatment led to an increased sensitivity to Taxol®, however Taxol® pretreatment appeared to be […] to compound 2-3 in this assay.

In experiment [4] the test system is Granta-22 lymphoma cell line. The experiment can be described thus: lymphoma cell number reduction, Granta-22. The experiment is classed as cell-based. To be noted: 48 hours; read-out: IC50 Values Granta-22, single agent. The method, then: as §2

The text below walks through data of patent US20080207632A1, “PROTEIN KINASE INHIBITORS” (SUPERGEN, INC., priority 2006, published 2008).

Broadly, the IC50 is the concentration at which inhibition is half-maximal.

T2 sequence (P30530 26-894): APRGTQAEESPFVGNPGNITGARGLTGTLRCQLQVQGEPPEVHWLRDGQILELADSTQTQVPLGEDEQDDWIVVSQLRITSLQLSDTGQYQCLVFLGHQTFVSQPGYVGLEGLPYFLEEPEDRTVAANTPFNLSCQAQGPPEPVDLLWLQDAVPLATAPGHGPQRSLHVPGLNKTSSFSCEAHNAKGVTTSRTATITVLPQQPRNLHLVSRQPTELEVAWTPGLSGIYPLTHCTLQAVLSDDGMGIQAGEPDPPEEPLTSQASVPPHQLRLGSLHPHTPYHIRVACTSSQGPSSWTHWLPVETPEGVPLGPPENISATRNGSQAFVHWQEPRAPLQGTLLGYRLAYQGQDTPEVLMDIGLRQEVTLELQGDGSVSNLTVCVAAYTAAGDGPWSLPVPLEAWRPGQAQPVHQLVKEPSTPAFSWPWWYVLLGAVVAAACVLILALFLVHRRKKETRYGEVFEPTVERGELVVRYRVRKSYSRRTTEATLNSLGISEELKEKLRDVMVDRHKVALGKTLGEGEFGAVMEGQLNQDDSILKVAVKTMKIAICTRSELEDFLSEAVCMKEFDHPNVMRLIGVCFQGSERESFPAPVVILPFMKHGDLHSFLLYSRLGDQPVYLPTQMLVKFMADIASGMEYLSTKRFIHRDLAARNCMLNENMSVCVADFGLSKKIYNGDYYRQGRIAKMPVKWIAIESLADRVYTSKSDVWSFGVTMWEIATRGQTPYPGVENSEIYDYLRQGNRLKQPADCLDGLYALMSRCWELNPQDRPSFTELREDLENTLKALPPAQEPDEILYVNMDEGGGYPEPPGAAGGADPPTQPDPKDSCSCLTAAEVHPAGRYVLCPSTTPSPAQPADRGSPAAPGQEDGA

Consider `COc1cc2[nH]c3ncnc(N4CCN(C(=S)Nc5ccc(S(=O)(=O)Nc6ccc(C(F)(F)F)cc6)cc5)CC4)c3c2cc1OC` [Compound 2-4, 4-(6,7-dimethoxy-9H-pyrimido[4,5-b]indol-4-yl)-N-(4-(N-(4-trifluoronethylhenyl)sulfamoyl)phenyl)piperazine-1-carbothioamide], for which the IC50 on aurora-2 kinase turned out to be 153 nM.
Turning to `CCc1nnc(NS(=O)(=O)c2ccc(NC(=S)N3CCN(c4ncnc5[nH]c6ccc(Cl)cc6c45)CC3)cc2)s1` [Compound 2-11], the IC50 in experiment [1] is 10000 nM. For the same compound, the “levels of phosphorylated Axl relative to untreated control samples” value in experiment [2] is given as “less than 50%”.
On to `CC(=O)O[C@H]1C(=O)[C@@]2(C)[C@H]([C@H](OC(=O)c3ccccc3)[C@]3(O)C[C@H](OC(=O)[C@H](O)[C@@H](NC(=O)c4ccccc4)c4ccccc4)C(C)=C1C3(C)C)[C@]1(OC(C)=O)CO[C@@H]1C[C@@H]2O` [Taxol ®, reference compound], for which the figures for the IC50 in experiment [3] and in experiment [4] were 301 nM and 2720 nM, respectively.
